Laboratory results reported in US7517894B2, “VEGFR-2 and VEGFR-3 inhibitory anthranilamide pyridines” (Bayer Schering Pharma AG, priority 2003, dated 2009).

Columns and labels:
VEGFR II (KDR) = VEGFR II (KDR) (Homo sapiens, UniProt P35968); test: Inhibition of the KDR kinase activity (33P-ATP, poly-(Glu4Tyr) phosphocellulose filter assay); type: biochemical; settings: 10 minutes at room temperature; phosphate incorporation into poly-(Glu4Tyr)
Method: • Stock solution A: 3 mmol of ATP in water, pH 7.0 (−70° C.) • Stock solution B: g-33P-ATP 1 mCi/100 μl • Stock solution C: poly-(Glu4Tyr) 10 mg/ml in water Solution for Dilutions • Substrate solvent: 10 mmol of DTT, 10 mmol of manganese chloride, 100 mmol of magnesium chloride • Enzyme solution: 120 mmol of tris/HCl, pH 7.5, 10 μM of sodium vanadium oxide Sample Application 1
In a microtiter plate (without protein binding) that tapers to a point, 10 μl of substrate mix (10 μl of volume of ATP stock solution A+25 μCi of g-33P-ATP (about 2.5 μl of stock solution B)+30 μl of poly-(Glu4Tyr) stock solution C+1.21 ml of substrate solvent), 10 μl of inhibitor solution (substances corresponding to the dilutions, 3% DMSO in substrate solvent as a control) and 10 μl of enzyme solution (11.25 μg of enzyme stock solution (KDR or FLT-1 kinase) are added at 4° C. in 1.25 ml of enzyme solution (dilute). It is thoroughly mixed and incubated for 10 minutes at room temperature. Then, 10 μl of stop solution (250 mmol of EDTA, pH 7.0) is added, mixed, and 10 μl of the solution is transferred to a P 81 phosphocellulose filter. Then, it is washed several times in 0.1 M phosphoric acid. The filter paper is dried, coated with Meltilex and measured in a microbeta counter.
The IC50 values are determined from the inhibitor concentration, which is necessary to inhibit the phosphate incorporation to 50% of the uninhibited incorporation after removal of the blank reading (EDTA-stopped reaction).

[1] = molecular target: T1, human cytochrome P 450 isoenzyme (3A4) (Homo sapiens, UniProt P08684); test: Cytochrome P450 inhibition (Crespi et al.); type: in vitro ADME; settings: baculovirus/insect cell-expressed human isoenzyme 3A4
T1 construct: host or cells: baculovirus/insect cells
Method: The cytochrome P450 inhibition was performed according to the publication of Crespi et al. (Anal. Biochem., 248, 188-190 (1997)) with use of baculovirus/insect cell-expressed, human cytochrome P 450 isoenzyme (3A4).

T1 sequence (P08684 whole entry): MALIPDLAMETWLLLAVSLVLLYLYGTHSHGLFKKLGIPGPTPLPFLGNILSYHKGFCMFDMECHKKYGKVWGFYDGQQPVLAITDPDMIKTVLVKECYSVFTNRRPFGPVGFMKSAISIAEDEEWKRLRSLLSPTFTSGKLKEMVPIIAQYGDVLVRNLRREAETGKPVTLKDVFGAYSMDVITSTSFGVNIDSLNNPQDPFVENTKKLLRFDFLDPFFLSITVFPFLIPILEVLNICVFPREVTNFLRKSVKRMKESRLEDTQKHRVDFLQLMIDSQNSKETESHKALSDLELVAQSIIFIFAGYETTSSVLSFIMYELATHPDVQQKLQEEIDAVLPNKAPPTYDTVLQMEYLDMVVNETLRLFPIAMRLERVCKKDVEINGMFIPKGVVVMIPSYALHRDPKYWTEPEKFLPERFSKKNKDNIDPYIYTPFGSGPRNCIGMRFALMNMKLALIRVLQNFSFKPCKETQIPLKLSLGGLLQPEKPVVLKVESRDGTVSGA
Sequence of VEGFR II (KDR) (P35968 20-1356): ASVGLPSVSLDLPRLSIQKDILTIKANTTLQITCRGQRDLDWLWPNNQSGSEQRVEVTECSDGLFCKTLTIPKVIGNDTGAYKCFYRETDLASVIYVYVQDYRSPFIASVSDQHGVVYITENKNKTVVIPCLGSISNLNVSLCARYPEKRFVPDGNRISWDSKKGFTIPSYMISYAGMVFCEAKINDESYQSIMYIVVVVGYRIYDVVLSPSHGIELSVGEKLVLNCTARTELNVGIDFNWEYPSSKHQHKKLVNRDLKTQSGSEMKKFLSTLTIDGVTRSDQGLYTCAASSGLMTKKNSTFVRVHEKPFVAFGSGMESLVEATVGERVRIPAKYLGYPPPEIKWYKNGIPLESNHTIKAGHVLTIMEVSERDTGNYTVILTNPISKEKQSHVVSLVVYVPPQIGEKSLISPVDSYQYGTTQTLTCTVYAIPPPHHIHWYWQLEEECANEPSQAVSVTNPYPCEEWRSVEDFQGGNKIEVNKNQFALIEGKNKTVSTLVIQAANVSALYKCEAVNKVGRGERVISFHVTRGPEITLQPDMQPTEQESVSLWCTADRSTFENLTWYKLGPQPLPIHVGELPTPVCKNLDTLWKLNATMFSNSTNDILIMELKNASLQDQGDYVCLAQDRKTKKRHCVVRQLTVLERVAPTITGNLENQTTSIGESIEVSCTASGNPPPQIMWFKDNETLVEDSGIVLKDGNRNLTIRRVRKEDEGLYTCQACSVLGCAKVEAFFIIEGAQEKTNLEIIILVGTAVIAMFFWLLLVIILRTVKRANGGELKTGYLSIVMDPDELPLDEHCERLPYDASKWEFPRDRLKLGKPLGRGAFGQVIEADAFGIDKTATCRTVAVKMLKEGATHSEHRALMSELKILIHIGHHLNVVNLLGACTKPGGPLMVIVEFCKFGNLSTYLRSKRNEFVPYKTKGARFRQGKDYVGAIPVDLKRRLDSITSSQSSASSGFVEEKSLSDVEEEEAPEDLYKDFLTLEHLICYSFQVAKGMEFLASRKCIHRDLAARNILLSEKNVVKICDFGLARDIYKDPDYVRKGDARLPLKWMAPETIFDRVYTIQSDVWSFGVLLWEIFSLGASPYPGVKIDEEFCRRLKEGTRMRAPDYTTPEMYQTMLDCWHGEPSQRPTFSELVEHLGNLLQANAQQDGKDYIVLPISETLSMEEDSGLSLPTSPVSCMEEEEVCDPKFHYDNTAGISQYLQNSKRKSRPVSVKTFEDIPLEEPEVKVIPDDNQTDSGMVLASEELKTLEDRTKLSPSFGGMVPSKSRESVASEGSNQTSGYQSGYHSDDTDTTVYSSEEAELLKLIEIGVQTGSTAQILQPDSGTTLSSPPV

Row | Structure (SMILES) | IC50 (VEGFR II (KDR)) | IC50 [1] | melting point
1 | O=C(Nc1cc2ccccc2cn1)c1ccccc1NCc1ccnc(N2CCOCC2)c1 [Example 1.14] | 52 nM | > 30000 nM | 
2 | Nc1cc(CNc2ccccc2C(=O)Nc2cc3ccccc3cn2)ccn1 [Example 2.1, 2-[(2-Amino-pyridin-4-ylmethyl)-amino]-N-isoquinolin-3-yl-benzamide] |  |  | 202 °C
3 | Nc1cc(CNc2ccccc2C(=O)Nc2ccc3[nH]ncc3c2)ccn1 [Example 2.2, 2-[(2-Amino-pyridin-4-ylmethyl)-amino]-N-(1H-indazol-5-yl)-benzamide] |  |  | 200 °C
4 | CNC(=O)Nc1cc(CNc2ccccc2C(=O)Nc2cc3ccccc3cn2)ccn1 [Example 3.24] | 12 nM | 14000 nM | 
5 | CN(C)C(=O)Nc1cc(CNc2ccccc2C(=O)Nc2cc3ccccc3cn2)ccn1 [Example 3.30, 2-{[2-(3,3-Dimethyl-ureido)-pyridin-4-ylmethyl]-amino}-N-(3-isoquinolinyl)-benzamide] | 10 nM | 5500 nM | 

More lines, now with the values ahead:

Row | IC50 (VEGFR II (KDR)) | IC50 [1] | melting point | Structure (SMILES)
6 | 24 nM | 10000 nM |  | CCOC(=O)Nc1cc(CNc2ccccc2C(=O)Nc2ccc3cn[nH]c3c2)ccn1 [Example 6.22]
7 | 65 nM | 11000 nM | 71 °C | CC(=O)N(C)c1cc(CNc2ccccc2C(=O)Nc2cc3ccccc3cn2)ccn1 [Example 6.31, 2-{[2-(Acetyl-methyl-amino)-pyridin-4-ylmethyl]-amino}-N-isoquinolin-3-yl-benzamide]
8 |  |  | 201.9 °C | O=C(Nc1cccc(C(F)(F)F)c1)c1ccccc1NCc1ccnc(N2C(=O)COCC2=O)c1 [Example 9.1, 2-{[2-(3,5-Dioxo-morpholin-4-yl)-pyridin-4-ylmethyl]-amino}-N-(3-trifluoromethyl-phenyl)-benzamide]
